In data set [1] the test system is articular cartilage defect. Briefly: DMM surgery-induced CD mouse model. The class given is in vivo, mice (strain C57/BL/6). To be noted: Grapiprant 30 mg/kg, HL-43 10 mg/kg, compared to vehicle. The text has this: EP4^f/f mice[67] were crossed with the Col2-cre strain to generate Col2-cre; EP4^f/f (EP4^Col2) mice, or were crossed with Aggrecan-creERT2[68] mice to generate EP4^f/f; Aggrecan-CreERT2 (EP4^AcanERT2) mice. Mice were maintained at the animal center of East China Normal University. All mouse experiments were approved by Ethics Committee at East China Normal University. Mice of the same genetic background were generated and raised under identical conditions. Sex-matched littermate mice were compared. For the DMM surgery-induced CD mouse model, WT mice (strain C57/BL/6) or EP4^Acan mice were used, n = 5 for each group. DMM surgery was carried out as previous described using 10-week-old male mice[69],[70]; while Sham-operated mice were used as controls. Knee joints were collected for histological analysis 6 or 8 weeks after surgery. Osteoarthritis Research Society International (OARSI) histopathology grading system was used to evaluate the sections, six sections of the articular cartilage of each mouse were evaluated. Synovitis was assessed by the synovitis score. Therapy with oral EP4 inhibitors was initiated one day after surgery and continued for 8 weeks, n = 8 for each group. EP4 inhibitors and Celecoxib were dissolved in carboxymethylcellulose sodium which is prepared at the concentration of 0.5%, and vehicle contained carboxymethylcellulose sodium alone. The vehicle, Celecoxib, Grapiprant, and HL-43 were delivered to mice at indicated doses daily by gavage, Celecoxib purchased from damas-beta (29322B), Grapiprant was purchased from Yuduobio, Shanghai, all other EP4 antagonists were synthesized by Dr. Hankun Zhang’s lab.
Von Frey nylon filaments were used to test the hind-paw reflex sensitivity to punctate static mechanical stimuli. Mice were habituated to the wire mesh bottom cages for 30 min before the test. von Frey filaments (Aesthesio von Frey Kit, Ugo Basile, Varese, Italy) were applied from underneath the mouse in ascending order to the mid-plantar surface of the hind paws. If withdrawal response was not induced, the next level of von Frey hair was applied until at least six withdrawals occurred in ten stimuli. This minimal force required to elicit 50% positive response was recorded as the paw withdrawal threshold[73],[74].
The paw withdrawal latency (PWL) and threshold (PWT) of thermal hyperalgesia were measured using the Ugo-Basile 37370 plantar test (Comerio, Italy). The mice were placed on a glass plate of constant temperature for 30 min before each test. Thermal thresholds of the ipsilateral hind paws were assessed three times with a 10 min interval between trials. The time(s) from irradiation to paw withdrawal was recorded as the thermal withdrawal latency. […]

The subject of another data set is CRE-Luc in ATDC5 cells. The data set can be described thus: CRE-Luc luciferase reporter assay. The class given is cell-based, mouse. To be noted: for CRE-Luc activity: 12 hr. The method, then:
Six firefly luciferase reporters were used in the Luciferase assay, including CRE-Luc (PathDetect CRE cis-Reporting System; Stratagene, La Jolla CA) driven by a basic promoter (TATA box) plus four repeats of CRE; Sox9 promoter-Luc contains human SOX9 proximal promoter region (−1034 bp to +67 bp)[45]; 4 × 48-p89-Luc, mouse Col2a1 minimal promoter. AP-1-Luc, Nf-κb-Luc, STAT-Luc were obtained from Stratagene. Chondrocytes were cultured in 24-well plates and 300 ng firefly luciferase reporter constructs were transiently transfected using transfection reagent TransExellent-DNA (Cenji Biotech Inc, China) following manufacturer’s instruction, and 15 ng of the Copia-Renilla luciferase reporter was co-transfected as a normalization control. […] The Dual-Luciferase measurements were performed in triplicate using the Luciferase assay kit (Promega) and a LUMIstar Omega luminometer (BMG Labtech, Mornington, Australia).
On the technique in general: Reporter assays use an easily measured gene product as a stand-in for the process of interest.

The subject of another data set is zebrafish embryos. The data set can be described thus: Zebrafish embryo toxicity assay. To be noted: for Mortality: zebrafish embryos; for Deformities / Hatching: zebrafish. The arrangement: Mortality / Deformities / Hatching: dose or concentration left out as unconfirmed.
[2] abbreviates: 72 hpf, in comparison to Celecoxib and Grapiprant.

Each structure is given as a SMILES string.

Experimental for zebrafish embryos: A breeding stock of zebrafish at the age of 6–24 months is used for egg production. Fertilized eggs were collected and viable eggs were transferred to the 12-well plate at 26 °C. Fertilized eggs between the 4-cell and 128-cell stages be used for the toxicity test, with ten fertilized eggs per concentration and three replicates of each concentration, a total of 30 eggs for each concentration. […] DMSO was added as vehicle control. Hatching, morphological abnormalities and survival were assessed 24 and 72 h of post-fertilization (dpf) in zebrafish exposed to the chemicals.

As for `CCc1nc2c(C)nc(C)cc2n1-c1ccc(CCNC(=O)NS(=O)(=O)c2ccc(C)cc2)cc1` [Grapiprant], the “Expression of Col2, Acan, and Sox9 in knee joint” value in data set [1] is on record as “increased”. Besides, the “Expression of Mmp13 and ColX in knee joint” value in data set [1] is listed as “decreased”. Further, the CRE-Luc activity entry in the data set with CRE-Luc in ATDC5 cells is on record as “increase CRE-Luc activity in a dose dependent manner”. Also, the Mortality is 4/30 with zebrafish embryos (24hpf, 0.3, n=30); 14/30 in the data set on zebrafish embryos (24hpf, 1, n=30); 13/30 with zebrafish embryos (24hpf, 3, n=30). Also, the Deformities is on record as 4/30 in the data set on zebrafish embryos (72hpf, 0.3, n=30); 3/30 in the data set on zebrafish embryos (72hpf, 1, n=30); 4/30 with zebrafish embryos (72hpf, 3, n=30). For the same compound, the Hatching is on record as 24/30 with zebrafish embryos (72hpf, 0.3, n=30); 16/30 in the data set with zebrafish embryos (72hpf, 1, n=30); 17/30 in the data set on zebrafish embryos (72hpf, 3, n=30).
Regarding `C[C@H](NC(=O)c1c(-c2ccccc2)nnn1CCOc1ccc(F)cc1)c1ccc(C(=O)O)cc1` [HL-43], the “Expression of Col2, Acan, and Sox9 in knee joint” value in data set [1] was “increased”. Also, in data set [1], the “Expression of Mmp13 and ColX in knee joint” value is listed as “decreased”. For the same compound, in the data set on CRE-Luc in ATDC5 cells (2 ng/ml IL-1β or 100 nM PGE2, 6 h), the “CRE-Luc reporter activity under pro-inflammatory conditions” value is listed as “dose-dependently activated”. In addition, the CRE-Luc activity result in the data set on CRE-Luc in ATDC5 cells is listed as “increase CRE-Luc activity in a dose dependent manner”. Besides, the “Mortality rate, ranking” value in the data set on zebrafish embryos (24 hpf, in comparison to Celecoxib and Grapiprant) is recorded as “lowest mortality rate”. Moreover, the “Deformities rate, ranking” value in the data set on zebrafish embryos (setting [2]) is given as “lowest deformities rate”. Moreover, in the data set on zebrafish embryos (setting [2]), the “Hatching rate, ranking” value was “highest hatching rate”. The Mortality was 0/30 in the data set on zebrafish embryos (24hpf, 0.3, n=30); 3/30 in the data set with zebrafish embryos (24hpf, 1, n=30); 6/30 in the data set on zebrafish embryos (24hpf, 3, n=30). Further, the Deformities is on record as 2/30 in the data set on zebrafish embryos (72hpf, 0.3, n=30); 2/30 with zebrafish embryos (72hpf, 1, n=30); 4/30 in the data set with zebrafish embryos (72hpf, 3, n=30). Moreover, the Hatching in the data set on zebrafish embryos (72hpf, 0.3, n=30) was 28/30; in the data set on zebrafish embryos (72hpf, 1, n=30) it was 26/30; in the data set on zebrafish embryos (72hpf, 3, n=30) it was 23/30.

For the origin of these results see PMC8901748, “A novel prostaglandin E receptor 4 (EP4) small molecule antagonist induces articular cartilage regeneration” (Cell Discovery, 2022).
